± gives the expanded uncertainty stated by the source.
Conditions: Liquid; for mass density: Vibrating tube method; for speed of sound: Pulse-echo method

CCCCCCCCCC(=O)OCC [ethyl decanoate]
Conditions | mass density, 343.15 K [kg/m3] | mass density, 353.15 K [kg/m3] | mass density, 363.15 K [kg/m3] | mass density, 373.15 K [kg/m3] | mass density, 383.15 K [kg/m3] | mass density, 393.15 K [kg/m3] | speed of sound, 343.15 K [m/s] | speed of sound, 363.15 K [m/s] | speed of sound, 383.15 K [m/s] | speed of sound, 403.15 K [m/s]
101.3 kPa | – | 814.4 ± 1 | 806.38 ± 1 | 797.32 ± 1 | 789.45 ± 1 | 780.85 ± 1 | – | 1065.9 ± 4.5 | 1001.3 ± 4.3 | 937.8 ± 4
10000 kPa | – | 823.62 ± 1.1 | 815.94 ± 1.1 | 807.87 ± 1.1 | 800.55 ± 1.1 | 792.15 ± 1.1 | – | 1130.1 ± 4.8 | 1071.1 ± 4.5 | 1013.4 ± 4.3
20000 kPa | – | 832.14 ± 1.1 | 824.71 ± 1.1 | 817.14 ± 1.1 | 810.35 ± 1.1 | 802.27 ± 1.1 | – | 1188.5 ± 5 | 1132.9 ± 4.8 | 1080.3 ± 4.6
30000 kPa | – | 839.63 ± 1.1 | 832.73 ± 1.1 | 825.49 ± 1.1 | 819.06 ± 1.1 | 811.47 ± 1.1 | – | 1241.2 ± 5.2 | 1188.3 ± 5 | 1138.6 ± 4.8
40000 kPa | – | 846.7 ± 1.1 | 840.08 ± 1.1 | 833.44 ± 1.1 | 826.96 ± 1.1 | 819.79 ± 1.1 | – | 1289.6 ± 5.4 | 1239.3 ± 5.2 | 1191.3 ± 5
50000 kPa | – | 853.22 ± 1.1 | 846.82 ± 1.1 | 840.48 ± 1.1 | 834.28 ± 1.1 | 827.43 ± 1.1 | – | 1334.7 ± 5.6 | 1286.4 ± 5.4 | 1240.5 ± 5.2
60000 kPa | – | 859.34 ± 1.1 | 853.11 ± 1.1 | 847.06 ± 1.1 | 841.17 ± 1.1 | 834.45 ± 1.2 | – | 1376.5 ± 5.8 | 1329.7 ± 5.6 | 1285.9 ± 5.4
70000 kPa | 871.46 ± 1.1 | 865.16 ± 1.1 | 859.26 ± 1.2 | 853.14 ± 1.2 | 847.62 ± 1.2 | 840.99 ± 1.2 | – | 1415.4 ± 5.9 | 1370.2 ± 5.7 | 1328.1 ± 5.6
80000 kPa | 876.76 ± 1.1 | 870.61 ± 1.2 | 864.82 ± 1.2 | 859.2 ± 1.2 | 853.58 ± 1.2 | 847.2 ± 1.2 | 1500.3 ± 6.3 | 1452.8 ± 6.1 | 1408.3 ± 5.9 | 1367.6 ± 5.7
90000 kPa | 881.86 ± 1.2 | 875.77 ± 1.2 | 870.11 ± 1.2 | 864.65 ± 1.2 | 859.32 ± 1.2 | 852.99 ± 1.2 | 1535.3 ± 6.4 | 1488.9 ± 6.2 | 1445 ± 6.1 | 1404.6 ± 5.9
100000 kPa | 886.72 ± 1.2 | 880.75 ± 1.2 | 875.14 ± 1.2 | 869.76 ± 1.2 | 864.87 ± 1.2 | 858.42 ± 1.2 | 1568.4 ± 9.6 | 1522.8 ± 9.3 | 1480 ± 9.1 | 1439.8 ± 8.8
110000 kPa | – | – | – | – | – | – | 1600.4 ± 9.8 | 1556 ± 9.5 | 1513.4 ± 9.3 | 1473.4 ± 9
120000 kPa | – | – | – | – | – | – | 1631.5 ± 10 | 1586.9 ± 9.7 | 1545.8 ± 9.5 | 1506.4 ± 9.3
130000 kPa | – | – | – | – | – | – | 1661.5 ± 10 | 1617.1 ± 9.9 | 1576.6 ± 9.7 | 1537.5 ± 9.4
140000 kPa | – | – | – | – | – | – | 1690 ± 10 | 1646.6 ± 10 | 1606.2 ± 9.9 | 1567.3 ± 9.6
150000 kPa | – | – | – | – | – | – | 1717.3 ± 10 | 1675.1 ± 10 | 1634.6 ± 10 | 1596.2 ± 9.8
170000 kPa | – | – | – | – | – | – | 1769.7 ± 11 | 1727.6 ± 11 | 1687.7 ± 10 | 1650.9 ± 10
190000 kPa | – | – | – | – | – | – | 1818.5 ± 11 | 1777 ± 11 | 1740.7 ± 11 | 1702.8 ± 10
210000 kPa | – | – | – | – | – | – | 1865 ± 12 | 1824.5 ± 11 | 1786.8 ± 11 | 1751.8 ± 11

Source: the NIST ThermoML archive (doi:10.1021/je300405a)
